Reference: the NIST ThermoML archive (doi:10.1021/je4009987)

Assay: mn = molality of the nth substance listed, in mol/kg
Settings: 101 kPa, Liquid; for speed of sound: Sing-around technique in a fixed-path interferometer; for mass density: Vibrating tube method

CCOC(=O)CC(C)=O [ethyl 3-oxobutanoate] + O
Settings | mass density, 288.15 K [kg/m3] | mass density, 293.15 K [kg/m3] | mass density, 298.15 K [kg/m3] | mass density, 303.15 K [kg/m3] | mass density, 308.15 K [kg/m3] | speed of sound, 288.15 K [m/s] | speed of sound, 293.15 K [m/s] | speed of sound, 298.15 K [m/s] | speed of sound, 303.15 K [m/s] | speed of sound, 308.15 K [m/s]
m1 = 0.076 | 1000.05 | 999.128 | 997.91 | 996.474 | 994.809 | 1472.6 | 1487.8 | 1501.3 | 1513 | 1523.1
m1 = 0.1625 | 1001.1 | 1000.13 | 998.838 | 997.358 | 995.64 | 1479.2 | 1493.6 | 1506.4 | 1517.4 | 1526.9
m1 = 0.2495 | 1002.14 | 1001.1 | 999.76 | 998.22 | 996.445 | 1485.5 | 1499.2 | 1511.2 | 1521.6 | 1530.4
m1 = 0.3767 | 1003.62 | 1002.48 | 1001.05 | 999.44 | 997.59 | 1494.1 | 1506.7 | 1517.7 | 1527.1 | 1535
m1 = 0.4725 | 1004.7 | 1003.48 | 1002 | 1000.32 | 998.41 | 1500 | 1511.7 | 1522 | 1530.8 | 1538.1
m1 = 0.5324 | 1005.38 | 1004.1 | 1002.58 | 1000.86 | 998.9 | 1503.4 | 1514.7 | 1524.5 | 1532.9 | 1539.8
m1 = 0.6848 | 1007.03 | 1005.6 | 1004 | 1002.18 | 1000.12 | 1511.6 | 1521.7 | 1530.5 | 1537.8 | 1543.7
m1 = 0.7843 | 1008.1 | 1006.56 | 1004.9 | 1003.01 | 1000.9 | 1516.3 | 1525.7 | 1533.7 | 1540.4 | 1545.8
m1 = 0.9019 | 1009.31 | 1007.65 | 1005.93 | 1003.94 | 1001.76 | 1521.4 | 1529.9 | 1537.2 | 1543.1 | 1547.8

COC(=O)CC(C)=O [methyl 3-oxobutanoate] + O
Settings | mass density, 288.15 K [kg/m3] | mass density, 293.15 K [kg/m3] | mass density, 298.15 K [kg/m3] | mass density, 303.15 K [kg/m3] | mass density, 308.15 K [kg/m3] | speed of sound, 288.15 K [m/s] | speed of sound, 293.15 K [m/s] | speed of sound, 298.15 K [m/s] | speed of sound, 303.15 K [m/s] | speed of sound, 308.15 K [m/s]
m1 = 0.0809 | 1000.36 | 999.43 | 998.205 | 996.78 | 995.12 | 1472.5 | 1487.7 | 1501.3 | 1513.1 | 1523.2
m1 = 0.1654 | 1001.65 | 1000.66 | 999.37 | 997.9 | 996.2 | 1477.3 | 1491.9 | 1504.8 | 1516.1 | 1525.7
m1 = 0.285 | 1003.44 | 1002.36 | 1001 | 999.454 | 997.68 | 1484.7 | 1498.3 | 1510.5 | 1521 | 1529.9
m1 = 0.386 | 1004.9 | 1003.75 | 1002.33 | 1000.73 | 998.91 | 1490.1 | 1503.1 | 1514.6 | 1524.4 | 1532.7
m1 = 0.4607 | 1005.98 | 1004.75 | 1003.3 | 1001.65 | 999.79 | 1494.2 | 1506.6 | 1517.6 | 1527 | 1534.9
m1 = 0.5604 | 1007.37 | 1006.06 | 1004.56 | 1002.85 | 1000.94 | 1499.6 | 1511.4 | 1521.7 | 1530.5 | 1537.9
m1 = 0.6367 | 1008.4 | 1007.01 | 1005.53 | 1003.74 | 1001.79 | 1503 | 1514.2 | 1524.1 | 1532.5 | 1539.5
m1 = 0.7871 | 1010.4 | 1008.9 | 1007.35 | 1005.47 | 1003.45 | 1509.8 | 1520.2 | 1529.1 | 1536.7 | 1542.9
m1 = 0.8429 | 1011.13 | 1009.58 | 1008 | 1006.11 | 1004.04 | 1512.2 | 1522.2 | 1530.9 | 1538.1 | 1544
